Data set [1] deals with SARS-CoV-2 USA/NYU-VC-003/2020. It is filed as cell-based.
For data set [2], the system named is SARS-CoV-2 USA-WA1/2020. Description: Time-of-drug-addition assay in A549+ACE2 cells. The class given is cell-based. The following applies: A549+ACE2, USA-WA1/2020.
Data set [3] concerns SARS-CoV-2 USA-WA1/2020. It is filed as cell-based. The following applies: for protection from virus-induced CPE: at 1 μM (PF-00835231: 1 μM and above); for protection from ring syncytium formation (CPE): at 0.33 μM and above; for protection from ring syncytium formation (CPE) / overall number of infected foci: microscopy; for overall number of infected foci: A549+ACE2, drug treatment.

Data set [4] relates to SARS-CoV-2. The following applies: Vero E6 cells; cited from earlier work.
Data set [5] relates to polarized human airway epithelial cultures (HAEC).
For data set [6], the system named is SARS-CoV-2 USA-WA1/2020. It is filed as cell-based. The following applies: for SARS-CoV-2 infectious titers in apical washes: 10 μM basolateral, washes every 12 h up to 72 h; for number of infected (N-expressing) cells: 10 μM, 72-h endpoint.
For data set [7], the system named is panel of diverse coronavirus 3CL^pro. The following applies: alpha-, beta- and gammacoronavirus 3CLpro panel; cited from earlier work.
Another data set concerns BCi-NS1.1 cells. The following applies: 48 h, dose range up to 10 μM.
The test system of data set [8] is SARS-CoV-2. The following applies: PF-00835231 with remdesivir, in vitro; cited from earlier work.
The next data set is described as follows: in vitro. The following applies: human.
For a further data set, the system named is COVID-19 patients. The following applies: patients with more advanced infection, i.v.; cited from earlier work.
Where [9] appears, read: PF-00835231 versus GC-376 set (Table 2).

Structures are written as SMILES. Where “and” joins values, the source holds several entries; their conditions need not be identical. Identical values can stand only once. Like-named read-outs stand apart in the source and are kept apart here. Some results are limits rather than exact numbers.

Usually EC90 stands for the concentration at which the effect reaches the 90% level. Low readings indicate greater potency, high ones weaker potency. Usually EC50 stands for the concentration at which the effect is half-maximal.

Consider `CC(C)C[C@H](NC(=O)OCc1ccccc1)C(=O)N[C@@H](CC1CCNC1=O)C(O)S(=O)(=O)[O-].[Na+]` (stereo partly drawn) [GC-376, reference compound], for which the EC90 in [1] was 2730 nM; in the data set with SARS-CoV-2 USA-WA1/2020 [3], 4550 nM and 5250 nM. Also, the EC50 in data set [1] (setting [9]) is 529 nM; with SARS-CoV-2 [4], 900 nM. The compound also displayed a CC50 in the data set on A549^+ACE2 cells of over 10000 nM. Further, the “minimum treatment dose that led to undetectable infection levels” value in the data set on SARS-CoV-2 USA-WA1/2020 [2] worked out at 10 µM. The “number and size of viral foci” value in the data set with SARS-CoV-2 USA-WA1/2020 [3] (1 μM, A549+ACE2) was “decreased the number and size of viral foci”. In addition, the “protection from virus-induced CPE” value with SARS-CoV-2 USA-WA1/2020 [3] is recorded as “unable to protect cells from virus-induced CPE”.

In the case of `COc1cccc2[nH]c(C(=O)N[C@@H](CC(C)C)C(=O)N[C@@H](C[C@@H]3CCNC3=O)C(=O)CO)cc12` [PF-00835231], in data set [1], the EC90 was 591 nM and 1170 nM. Besides, in [1] (setting [9]), a half-maximal effect (EC50) was put at 326 nM. Besides, in data set [1] (PF-00835231 versus remdesivir set (Table 1), n = 3), the half-maximal effective concentration (EC50) is 184 nM. The CC50 in the data set on A549^+ACE2 cells was over 10000 nM. Besides, the “minimum treatment dose that led to undetectable infection levels” value in the data set with SARS-CoV-2 USA-WA1/2020 [2] turned out to be 3 µM. Also, in [5], the “effect on morphology of HAEC (histology)” value is reported as “Neither drug caused measurable adverse effects on the morphology of the cultures”. In the data set on SARS-CoV-2 USA-WA1/2020 [6], the “SARS-CoV-2 infectious titers in apical washes” value is reported as “viral titers below the limit of detection at most time points” and the “number of infected (N-expressing) cells” value was “the number of infected cells was significantly reduced”. Besides, the “change in antiviral efficacy when blocking MDR1” value with SARS-CoV-2 USA-WA1/2020 [6] ([…], HAEC, 0.025 or 0.5 μM PF-00835231) is recorded as “no changes in antiviral efficacy when blocking MDR1 activity”. In addition, in the data set with SARS-CoV-2 USA-WA1/2020 [3], the “change in antiviral efficacy when blocking MDR1” value is given as “no changes in antiviral efficacy when blocking MDR1 activity”, the “protection from virus-induced CPE” value is on record as “fully protected” and the “overall number of infected foci” value was “decreased the overall number of infected foci”. In addition, the “protection from ring syncytium formation (CPE)” value with SARS-CoV-2 USA-WA1/2020 [3] (A549+ACE2) is recorded as “fully protected”. For the same compound, in the data set with SARS-CoV-2 [4], the EC50 is 270 nM, the “antiviral activity against SARS-CoV-2” value is reported as “high micromolar levels” and the “effect of inhibiting MDR1 function on antiviral efficacy” value is “significantly increased antiviral efficacy”. The “inhibition of 3CLpro” value in data set [7] is listed as “potent inhibition”. For the same compound, the “ATP levels (cell viability)” value in the data set on BCi-NS1.1 cells is on record as “did not detect a decrease in ATP”. In the data set with SARS-CoV-2 [8], the “combination effect with remdesivir in inhibiting SARS-CoV-2” value is listed as “significant synergistic effects”.

For the compound `CCC(CC)COC(=O)[C@H](C)N[P@](=O)(OC[C@H]1O[C@@](C#N)(c2ccc3c(N)ncnn23)[C@H](O)[C@@H]1O)Oc1ccccc1` [remdesivir, reference compound], the CC50 in “in vitro” was over 10000 nM. In the data set on COVID-19 patients, the patients with benefit was 68%. In addition, in [5], the “effect on morphology of HAEC (histology)” value is listed as “Neither drug caused measurable adverse effects on the morphology of the cultures” and the “effect on transepithelial resistance (TEER) over time” value is recorded as “negatively impacted TEER over time, albeit not statistically significantly compared to untreated cultures”. In the data set with SARS-CoV-2 USA-WA1/2020 [6], the “SARS-CoV-2 infectious titers in apical washes” value is recorded as “viral titers below the limit of detection at most time points” and the “number of infected (N-expressing) cells” value is listed as “the number of infected cells was significantly reduced”. The “protection from ring syncytium formation (CPE)” value with SARS-CoV-2 USA-WA1/2020 [3] (A549+ACE2) is “fully protected”. For the same compound, in the data set with SARS-CoV-2 USA-WA1/2020 [3], the “overall number of infected foci” value is listed as “decreased the overall number of infected foci”. For the same compound, in the data set with BCi-NS1.1 cells, the “ATP levels (cell viability)” value was “caused a reduction in ATP levels compared to carrier control, albeit not statistically significantly”.

Values taken from article PMC8139662 (Journal of Virology, 2021).
